# Reference: patent US12390470B2, “1-methylxanthine-based bioactive composition and method of use thereof” (Ingenious Ingredients, LP, priority 2021, dated 2025)
# Several values for one entry are separate records, joined by “and”; a condition that tells them apart may be missing. Equal values may be shown once.
# What was measured:
# [1] = test system: male Swiss Albino mice; assay: Forelimb grip strength test; format: in vivo
# Experimental: (§1) Twenty-four 8-week-old male Swiss Albino mice were housed in an animal room at a constant temperature (22±3° C.) and humidity (30%-70%) under a 12:12 h light-dark cycle with standard laboratory diet (Purina 5L79, Rat and Mouse 18% protein; PMI Nutrition International, Brentwood, MO, USA). Distilled water was provided ad libitum. All animal experiments were reviewed and approved by the Institutional Animal Ethical Committee (IAEC) of Radiant Research Services Pvt. Ltd (Bangalore, India). All research was conducted in accordance with the guidelines of the committee for the purpose of control and supervision of experiments on animals.
# After one week of acclimation, the animals were randomly divided by body weight into three groups (n=8 per group in each test) for oral treatment once a day, at approximately same time each day (±1 hour), for 28 consecutive days: (1) vehicle control or (2) 1-methylxanthine or (3) 1-methylxanthine plus paraxanthine. The dose administered to the mice was calculated using US Food and Drug Administration for human equivalence doses (HED), assuming a human weight of 60 kg. The following HED was used in this study: 100 mg 1-methylxanthine (Ingenious Ingredients, L.P Lewisville, TX, USA; mouse dose: 20.5 mg/kg bw/day), or 100 mg 1-methylxanthine (Ingenious Ingredients, L.P Lewisville, TX, USA; mouse dose: 20.5 mg/kg bw/day) plus 100 mg paraxanthine (ENFINITY™, Ingenious Ingredients, L.P Lewisville, TX, USA; mouse dose: 20.5 mg/kg bw/day). 0.5% Carboxy Methyl Cellulose sodium was used as vehicle and the test item formulations were prepared daily. […] Food intake was monitored daily while water intake was ad libitum. BW was recorded weekly. […]
# The forelimb grip strength was measured on day 0 and day 28 by using a stainless-steel grill to assess muscle strength (Orchid Scientific & Innovative India Pvt Ltd, India). Grip strength was measured one hour after treatment. […] Each animal performed three independent trials and the mean of the three trials was calculated and recorded.
# [2] = test system: gastrocnemius; assay: Gastrocnemius muscle mass after 28 days supplementation; format: in vivo, mice
# Experimental: as §1
# After one week of acclimation, the animals were randomly divided by body weight into three groups (n=8 per group in each test) for oral treatment once a day, at approximately same time each day (±1 hour), for 28 consecutive days: (1) vehicle control or (2) 1-methylxanthine or (3) 1-methylxanthine plus paraxanthine. The dose administered to the mice was calculated using US Food and Drug Administration for human equivalence doses (HED), assuming a human weight of 60 kg. […] Food intake was monitored daily while water intake was ad libitum. BW was recorded weekly. […]
# [3] = test system: glutathione; assay: Glutathione level in young and old rats; format: in vivo
# Experimental: as §1, with “young (6-8 Week) and twenty-four old (14-16 Months)” for “8-week-old male”, “Wistar rats” for “mice”
# (§2) After one week of acclimation, the animals were randomly divided by body weight and age into six groups (n=8 per group in each test) for oral treatment once a day, at approximately same time each day (±1 hour), for 10 consecutive days: (1) vehicle control or (2) 1-methylxanthine or (3) 1-methylxanthine plus paraxanthine. The dose administered to the rat was calculated using US Food and Drug Administration for human equivalence doses (HED), assuming a human weight of 60 kg. […] Food intake was monitored daily while water intake was ad libitum. […] Body weight was recorded weekly. […]
# [4] = test system: catalase; assay: Catalase level in young and old rats; format: in vivo
# Experimental: as §1, with “young (6-8 Week) and twenty-four old (14-16 Months)” for “8-week-old male”, “Wistar rats” for “mice”
# as §2
# [5] = test system: female wistar rats; details: rat, in vivo, 14 days
# Experimental: An acute oral toxicity study of 1-Methylxanthine) was conducted in female wistar rats in accordance with OECD 423 guidelines. Rats were administered a single dose of 2,000 mg/kg orally and then observed individually for the first four hours, then over a period of 24 hours and once daily for 14 days. General behavior, adverse effects and mortality were observed throughout the experimental period. Body weights were recorded on test day 0 (prior to administration), day 3, day 7 and day 14. All the animals were necropsied and examined macroscopically. All the surviving animals had gained body weight by day 14 as compared to day 0. […] Based on the results, the median lethal dose of test substance in female rats after single oral treatment is 2,000 mg/kg body weight and is classified as category 5 and safe.
# [6] = test system: participants; assay: Resting energy expenditure, placebo-controlled crossover; format: in vivo, human
# Experimental: Two participants were assigned in a randomized, double-blind, placebo-controlled, crossover fashion to ingest a non-energetic placebo (maltodextrin) or a 200 mg dose of 1-methylxanthine (1-MX). All supplements were orally ingested with 8 fluid ounces of cold tap water. Resting Energy Expenditure was measured at baseline, 30, 60, 90, 120 and 180 minutes after ingestion.
smiles,measurement,setting,value
"Cn1c(=O)[nH]c2nc[nH]c2c1=O [1-methylxanthine, 1-Methyl-3H-purine-2,6-dione]",Forelimb grip strength,[1]; baseline,91.1±1.3 gf
same,changes in strength greater than control,[1]; baseline to day 28,15.9%
same,Forelimb grip strength,"[1]; day 28, oral 20.5 mg/kg bw/day each, 28 days, with exercise training",126.9±6.0 gf
same,gastrocnemius mass greater compared to control,[2]; 28 days,1.9%
same,gastrocnemius mass,[2]; 28 days after supplementation,161.1 ± 4.3 mg
same,glutathione levels,[3]; old rats,25.29 ± 0.93 µg/mL
same,glutathione levels,"[3]; young rats, listed as 1-MX",28.57 ± 1.36 µg/mL and 28.57 ± 1.65 µg/mL
same,catalase levels,[4]; old rats,32.78±1.26 U/mL
same,catalase levels,[4]; young rats,33.32±1.68 U/mL
same,toxicity classification,[5],category 5
same,median lethal dose,[5]; po,"2,000 mg/kg body weight"
same,Resting Energy Expenditure MEAN,[6]; Average,"1,897 kcals/day"
same,Resting Energy Expenditure MEAN,[6]; Person one,"2,006 kcals/day"
same,Resting Energy Expenditure,"[6]; Person one, 30 min",2050 kcals/day
same,Resting Energy Expenditure,"[6]; Person one, 60 min",1975 kcals/day
same,Resting Energy Expenditure,"[6]; Person one, 90 min",1988 kcals/day
same,Resting Energy Expenditure,"[6]; Person one, 120 min",1964 kcals/day
same,Resting Energy Expenditure,"[6]; Person one, 180 min",2053 kcals/day
same,Resting Energy Expenditure,"[6]; Person one, time 0, 200 mg oral",2017 kcals/day
same,Resting Energy Expenditure MEAN,[6]; Person two,"1,788 kcals/day"
same,Resting Energy Expenditure,"[6]; Person two, 30 min",1789 kcals/day
same,Resting Energy Expenditure,"[6]; Person two, 60 min",1790 kcals/day
same,Resting Energy Expenditure,"[6]; Person two, 90 min",1777 kcals/day
same,Resting Energy Expenditure,"[6]; Person two, 120 min",1912 kcals/day
same,Resting Energy Expenditure,"[6]; Person two, 180 min",1670 kcals/day
same,Resting Energy Expenditure,"[6]; Person two, time 0, 200 mg oral",1769 kcals/day
